Columns and labels:
human CD4 T-cells = test: Proliferation of human CD4 T-cells cultured with Shh N-terminal active peptide (3H thymidine); format: cell-based; conditions: activated CD4+ T-cells; dose dependent
CD4+ T-cells [1] = test: T-cell proliferation assay (3H-TdR incorporation); format: cell-based, mouse
Experimental: Single cell suspensions from pooled C57BL/6 mouse spleens were applied to negative selection CD4^+ T-cell columns (R&D systems Europe Ltd, Abingdon, UK) as per manufacturers instructions. Purity was checked using FACS staining with an anti-CD4^FITC antibody and this ranged between 88-93%.
(§1) CD4^+ T-cells were cultured in RPMI 1640 medium (Life Technologies, Paisley, UK) supplemented with 10% FCS (Life Technologies), 2 mM L-glutamine, (Sigma, Dorset, UK), 20 μg/ml penicillin/streptomycin (Life Technologies) and […] 2-mercaptoethanol (Sigma). Anti-CD3/28 antibody activation was carried out at 2 concentrations, namely ‘sub-optimal’ (anti-CD3 at 0.25 μg/ml and anti-CD28 at 0.1 μg/ml) and ‘optimal’ (anti-CD3 at 1 μg/ml and anti-CD28 at 5 μg/ml). Tissue culture plates (Corning Inc., NY, USA) were coated with the anti-CD3 antibody for 90 min at 37° C. prior to addition of the CD4^+ T-cells. Recombinant mouse Shh amino-terminal peptide (R&D systems Europe Ltd, Abingdon, UK) was added into cultures at a concentration of 500 ng/ml. 5E1 antibody was used at either 20 μg/ml or 50 μg/ml and the isotype control was used at 20 μg/ml. The concentrations used were based on results of dose response curves (data not shown).
The CD4^+ T-cells were cultured as above in 96-well plates with and without addition of exogenous Shh or 5E1. They were pulsed after 48 hr of anti-CD3/28 activation with 20 μl of ^3H-TdR (50 μCi/ml) (Amersham), harvested at 72 hr and read on a betaplate scintillation counter (Wallac UK, Milton Keynes, UK).
Purified peripheral CD4^+ T-cells were cultured with and without the addition of the biologically active amino terminal Shh peptide. An initial titration curve established that 500 ng/ml was the optimal dose of the Shh peptide to enhance proliferation of peripheral CD4^+ T-cells (data not shown), and this concentration was used in all subsequent experiments. Shh was added to CD4^+ T-cells that were resting, maximally stimulated with anti-CD3 (1 μg/ml) and anti-CD28 (5 μg/ml) antibodies or sub-optimally activated with anti-CD3 (0.25 μg/ml) and anti-CD28 (0.1 μg/ml).

CD4+ T-cells [2] = test: Cell cycle analysis (propidium iodide, Vindelov method); format: cell-based, mouse
Experimental: as §1
The CD4^+ T-cells were cultured as above in 48-well plates with and without addition of exogenous Shh or 5E1. At 72 hr post-activation, the cells were spun at 13,000 rpm for 7 min then re-suspended in citrate buffer. Cell cycle analysis was carried out using the Vindelov method (Vindelov et al, 1990). Briefly, the cells were trypsinized (Sigma) to expose the nucleus before being stained with propidium iodide (Sigma). Cell cycle analysis was then performed on an Epics© XL flow cytometer (Beckman Coulter UK Ltd, Bucks, UK). The machine counted 30,000 nuclei in each sample and the software analysed the % of cells in each stage of the cell cycle sub-G1, G1, S phase and G2/M. From these figures, the % of live cells (G1, S and G2/M) was calculated, and from this, the % of live cells in G1 and S/G2 phases.
The effect of Shh on CD4^+ T-cell proliferation was investigated further using cell cycle analysis to allow us to examine if Shh affected cell survival or promoted entry in the S/G2 proliferative phase of the cell cycle. As with the ^3H-TdR incorporation studies, this analysis was carried out on resting CD4^+ T-cells and those optimally and sub-optimally activated. Exogenous Shh was added at the time of (t=0) or 24 hr before (t=−24 hr) anti-CD3/28 antibody activation and the T-cells were analysed 72 hr later. In the case of resting CD4^+ T-cells, Shh peptide was added at t=0, and the cells were analysed at 24 hr, 48 hr and 72 hrs. The % cells distributed in sub-G1, G1, S and G2 phases of the cell cycle was analysed, and from this the % live cells in G1 and S/G2 phases was calculated.

[3] = optimally activated, Shh 24 hr prior to activation
[4] = sub-optimally activated, Shh peptide at t=0

Shh peptide: Recombinant mouse Shh amino-terminal peptide (R&D systems); biologically active N-terminal Sonic hedgehog fragment
incorporation of 3H-thymidine (human CD4 T-cells): significantly enhances | optimal dose to enhance proliferation of peripheral CD4+ T-cells (CD4+ T-cells [1]; initial titration curve (data not shown)): 500 ng/mL | level of proliferation (3H-TdR incorporation) (CD4+ T-cells [1]; maximally stimulated (anti-CD3 1 μg/ml, anti-CD28 5 μg/ml), Shh peptide 500 ng/ml added at t=-24 hr or t=0): no significant difference | degree of proliferation (CD4+ T-cells [1]; resting CD4+ T-cells, Shh peptide 500 ng/ml): No significant difference | increase in proliferation, range (CD4+ T-cells [1]; sub-optimal activation, Shh peptide 500 ng/ml 24 hr prior to activation): 16-63% | increase in proliferation, mean (CD4+ T-cells [1]; sub-optimal activation, Shh peptide 500 ng/ml 24 hr prior to activation, n=3, p<0.04): 46% | increase in CD4+ T-cell proliferation, mean (CD4+ T-cells [1]; sub-optimal activation, Shh peptide 500 ng/ml at t=0, 72 hr, p<0.01): 101.6% | increase in CD4+ T-cell proliferation, range (CD4+ T-cells [1]; sub-optimal anti-CD3 0.25 μg/ml, anti-CD28 0.1 μg/ml, Shh peptide 500 ng/ml at t=0, 72 hr): 76.2-128% | effect on cell cycle progression, direct addition on its own (CD4+ T-cells [2]; FIG. 13, Shh 10 and 500 ng/ml, relative to the anti-Shh effect): slight effect in the opposite direction | % increase in live cells in S/G2 phase, range (CD4+ T-cells [2]; optimally activated (anti-CD3 1 μg/ml, anti-CD28 5 μg/ml), Shh at t=0, 72 hr): 9%-144% | % of live cells with and without Shh (CD4+ T-cells [2]; [3]): very similar | increase in cells in S/G2 phase, range (CD4+ T-cells [2]; [3]): 53.1%-97.1% | increase in cells in S/G2 phase, mean (CD4+ T-cells [2]; optimally activated, Shh 24 hr prior to activation, n=3, p<0.01): 71.5% | % of live cells with and without Shh (CD4+ T-cells [2]; optimally activated, Shh at t=0): very similar | % increase in live cells in S/G2 phase, mean (CD4+ T-cells [2]; optimally activated, Shh at t=0, n=3, not statistically significant): 63.7% | difference in % of cells in S/G2 phase (CD4+ T-cells [2]; resting CD4+ T-cells, Shh 500 ng/ml): negligible | effect on cell survival (CD4+ T-cells [2]; resting CD4+ T-cells, Shh 500 ng/ml, 24, 48, 72 hr): minimal effects | increase in % of live cells entering S/G2 phase, range (CD4+ T-cells [2]; sub-optimally activated, Shh peptide 24 hr prior to activation): 34.6%-110% | increase in % of live cells entering S/G2 phase, mean (CD4+ T-cells [2]; sub-optimally activated, Shh peptide 24 hr prior to activation, n=3, p<0.03): 61.5% | % of live CD4+ T-cells (CD4+ T-cells [2]; sub-optimally activated, Shh peptide 24 hr prior to activation, p<0.02): increase | % increase in live cells in S/G2 phase, range (CD4+ T-cells [2]; [4]): 27.8%-77.8% | % live cells with and without Shh (CD4+ T-cells [2]; [4]): similar | % increase in live cells in S/G2 phase, mean (CD4+ T-cells [2]; sub-optimally activated, Shh peptide at t=0, n=3, p<0.02): 55.8%
